Data reported in patent US9546158B2, “2,5-substituted pyrimidines” (Grünenthal GmbH, priority 2014, dated 2017).

Biological target: T1, human PDE4B1 (Homo sapiens, UniProt Q07343)
T1 construct: host or cells: Sf9 cells
Experiment: cAMP HTRF assay to determine the activity of hPDE4B1
Type: biochemical
Conditions: test substrate concentration of 1 μM, read-out: Inhibition of PDE4B, Inhibition in %
Experimental: cAMP HTRF® Assay to Determine the Activity of hPDE4B1
The inhibiting effect of the compounds on the enzyme activity of human PDE4B1 was measured by the quantification of 5′-adenosine monophosphate (5′-AMP), which is formed from 3′,5′-cyclic adenosine monophosphate (cAMP). Human recombinant enzyme, expressed in Sf9 cells, and the HTRF (homogeneous time-resolved fluorescence) detection method were used in the assay.
The test compound or water (control) was mixed with the human recombinant PDE4B1 enzyme (4.8 U) in a buffer consisting of 44.4 mM tris-HCl, 5.28 mM MgCl2, 2.64 mM DTT and 0.044% Tween 20 (pH 7.8). After adding the cAMP enzyme substrate (final concentration 40 nM), the mixture was incubated for 30 minutes at room temperature. Then a fluorescence acceptor (Dye2 marked with cAMP), a fluorescence donor (anti-cAMP antibody marked with a europium cryptate) and the non-specific phosphodiesterase inhibitor IBMX (3-isobutyl-1-methylxanthine; final concentration 1 mM) were added. After 60 minutes the fluorescence transfer, which correlates with the amount of remaining cAMP, was measured with a microplate reader (Rubystar, BMG) at λex=337 nm, λem=620 nm and λem=665 nm. The enzyme activity was calculated from the quotient formed from the measured signal at 665 nm and that at 620 nm. The result was expressed as the percentage inhibition of enzyme activity of the control (without PDE4 inhibitor). The enzyme was omitted for measurement of the basal control. IC50 values (IC50=concentration causing a half-maximal inhibition of control specific activity) were derived from dose response measurements with eight different concentrations (n=2; N=1-3).
Literature: N. Saldou et al., Comparison of recombinant human PDE4 isoforms: interaction with substrate and inhibitors, Cell. Signal. Vol. 10, No. 6, 427-440, 1998

T1 sequence (Q07343 whole entry): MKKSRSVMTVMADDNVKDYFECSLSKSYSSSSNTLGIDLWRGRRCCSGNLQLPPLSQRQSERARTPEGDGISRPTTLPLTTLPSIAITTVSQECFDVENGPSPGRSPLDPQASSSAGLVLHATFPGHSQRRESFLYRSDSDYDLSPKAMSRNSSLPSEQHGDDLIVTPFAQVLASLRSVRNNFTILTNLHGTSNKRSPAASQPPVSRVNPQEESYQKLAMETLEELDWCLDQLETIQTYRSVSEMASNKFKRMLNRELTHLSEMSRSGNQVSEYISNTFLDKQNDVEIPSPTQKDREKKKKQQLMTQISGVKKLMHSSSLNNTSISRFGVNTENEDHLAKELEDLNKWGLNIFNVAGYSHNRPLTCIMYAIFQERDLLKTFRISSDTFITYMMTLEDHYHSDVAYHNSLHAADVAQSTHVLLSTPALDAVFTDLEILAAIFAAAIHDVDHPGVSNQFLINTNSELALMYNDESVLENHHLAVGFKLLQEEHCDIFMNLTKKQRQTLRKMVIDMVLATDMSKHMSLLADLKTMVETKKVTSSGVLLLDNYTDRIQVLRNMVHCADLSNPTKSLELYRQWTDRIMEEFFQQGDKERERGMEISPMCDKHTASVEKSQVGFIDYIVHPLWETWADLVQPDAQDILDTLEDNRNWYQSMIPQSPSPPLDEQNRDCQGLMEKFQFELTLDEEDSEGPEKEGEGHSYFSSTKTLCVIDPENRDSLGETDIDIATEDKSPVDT

Compound | inhibition at 1 µM [%]
Cc1nn(-c2ncc(-c3ccccc3F)cn2)c2cc(C(=O)N3CCOCC3)ccc12 [Compound No. 1, (1-(5-(2-Fluorophenyl)pyrimidin-2-yl)-3-methyl-1H-indazol-6-yl)(morpholino)methanone] | 99
O=C(c1ccc2c(C(F)(F)F)nn(-c3ncc(-c4ccccc4F)cn3)c2c1)N1CCOCC1 [Compound No. 2, (1-(5-(2-Fluorophenyl)pyrimidin-2-yl)-3-(trifluoromethyl)-1H-indazol-6-yl)(morpholino)methanone] | 102
NC(=O)c1nn(-c2ncc(-c3ccccc3F)cn2)c2cc(C(=O)N3CCOCC3)ccc12 [Compound No. 3, 1-(5-(2-Fluorophenyl)pyrimidin-2-yl)-6-(morpholine-4-carbonyl)-1H-indazole-3-carboxamide] | 83
O=C(c1ccc2c(C3CC3)nn(-c3ncc(-c4ccccc4F)cn3)c2c1)N1CCOCC1 [Compound No. 4, (3-Cyclopropyl-1-(5-(2-fluorophenyl)pyrimidin-2-yl)-1H-indazol-6-yl)(morpholino)methanone] | 106
CS(=O)(=O)c1nn(-c2ncc(-c3ccccc3F)cn2)c2cc(C(=O)N3CCOCC3)ccc12 [Compound No. 5, (1-(5-(2-Fluorophenyl)pyrimidin-2-yl)-3-(methylsulfonyl)-1H-indazol-6-yl)(morpholino)methanone] | 96
C[S+]([O-])c1nn(-c2ncc(-c3ccccc3F)cn2)c2cc(C(=O)N3CCOCC3)ccc12 (stereo not drawn) [Compound No. 6, (1-(5-(2-Fluorophenyl)pyrimidin-2-yl)-3-(methylsulfinyl)-1H-indazol-6-yl)(morpholino)methanone] | 97
C[S+]([O-])c1nn(-c2ncc(-c3ccccc3F)cn2)c2cc(C(=O)N3CCNCC3)ccc12 (stereo not drawn) [Compound No. 8, (1-(5-(2-Fluorophenyl)pyrimidin-2-yl)-3-(methylsulfinyl)-1H-indazol-6-yl)(piperazin-1-yl)methanone] | 64
C[S+]([O-])c1nn(-c2ncc(-c3ccccc3)cn2)c2cc(C(=O)N3CCNCC3)ccc12 (stereo not drawn) [Compound No. 9, (3-(Methylsulfinyl)-1-(5-phenylpyrimidin-2-yl)-1H-indazol-6-yl)(piperazin-1-yl)methanone] | 46
C[S+]([O-])c1nn(-c2ncc(-c3ccccc3)cn2)c2cc(C(=O)N3CCOCC3)ccc12 (stereo not drawn) [Compound No. 11, (3-(Methylsulfinyl)-1-(5-phenylpyrimidin-2-yl)-1H-indazol-6-yl)(morpholino)methanone] | 115
CS(=O)(=O)c1nn(-c2ncc(-c3ccccc3)cn2)c2cc(C(=O)N3CCOCC3)ccc12 [Compound No. 12, (3-(Methylsulfonyl)-1-(5-phenylpyrimidin-2-yl)-1H-indazol-6-yl)(morpholino)methanone] | 62
C[S+]([O-])c1nn(-c2ncc(-c3ccccc3F)cn2)c2cc(C(=O)N3CC[C@@H](N)C3)ccc12 (stereo partly drawn) [Compound No. 13, ((R)-3-Aminopyrrolidin-1-yl)(1-(5-(2-fluorophenyl)pyrimidin-2-yl)-3-(methylsulfinyl)-1H-indazol-6-yl)methanone] | 108
Cc1cccc(-c2cnc(-n3nc(C(C)O)c4ccc(C(=O)N5CCOCC5)cc43)nc2)c1 (stereo not drawn) [Compound No. 18, (3-(1-Hydroxyethyl)-1-(5-(m-tolyl)pyrimidin-2-yl)-1H-indazol-6-yl)(morpholino)-methanone] | 96
CC(O)c1nn(-c2ncc(-c3ccccc3)cn2)c2cc(C(=O)N3CCOCC3)ccc12 (stereo not drawn) [Compound No. 19, (3-(1-Hydroxyethyl)-1-(5-phenylpyrimidin-2-yl)-1H-indazol-6-yl)(morpholino)methanone] | 112
CC(O)c1nn(-c2ncc(-c3ccccc3F)cn2)c2cc(C(=O)N3CCOCC3)ccc12 (stereo not drawn) [Compound No. 20, (1-(5-(2-Fluorophenyl)pyrimidin-2-yl)-3-(1-hydroxyethyl)-1H-indazol-6-yl)(morpholino)methanone] | 102
COc1ccc(F)c(-c2cnc(-n3nc(C(C)O)c4ccc(C(=O)N5CCOCC5)cc43)nc2)c1 (stereo not drawn) [Compound No. 21, (1-(5-(2-Fluoro-5-methoxyphenyl)pyrimidin-2-yl)-3-(1-hydroxyethyl)-1H-indazol-6-yl)(morpholino)methanone] | 112
CC(O)c1nn(-c2ncc(-c3cc(C#N)ccc3F)cn2)c2cc(C(=O)N3CCOCC3)ccc12 (stereo not drawn) [Compound No. 22, 4-Fluoro-3-(2-(3-(1-hydroxyethyl)-6-(morpholine-4-carbonyl)-1H-indazol-1-yl)pyrimidin-5-yl)benzonitrile] | 112
Cc1cccc(-c2cnc(-n3nc([S+](C)[O-])c4ccc(C(=O)N5CCOCC5)cc43)nc2)c1 (stereo not drawn) [Compound No. 23, (3-(Methylsulfinyl)-1-(5-(m-tolyl)pyrimidin-2-yl)-1H-indazol-6-yl)(morpholino)methanone] | 101
COc1ccc(F)c(-c2cnc(-n3nc([S+](C)[O-])c4ccc(C(=O)N5CCOCC5)cc43)nc2)c1 (stereo not drawn) [Compound No. 24, (1-(5-(2-Fluoro-5-methoxyphenyl)pyrimidin-2-yl)-3-(methylsulfinyl)-1H-indazol-6-yl)(morpholino)methanone] | 100
C[S+]([O-])c1nn(-c2ncc(-c3cc(C#N)ccc3F)cn2)c2cc(C(=O)N3CCOCC3)ccc12 (stereo not drawn) [Compound No. 25, 4-Fluoro-3-(2-(3-(methylsulfinyl)-6-(morpholine-4-carbonyl)-1H-indazol-1-yl)pyrimidin-5-yl)benzonitrile] | 85
Cc1cccc(-c2cnc(-n3nc(S(C)(=O)=O)c4ccc(C(=O)N5CCOCC5)cc43)nc2)c1 [Compound No. 26, (3-(Methylsulfonyl)-1-(5-(m-tolyl)pyrimidin-2-yl)-1H-indazol-6-yl)(morpholino)methanone] | 91
COc1ccc(F)c(-c2cnc(-n3nc(S(C)(=O)=O)c4ccc(C(=O)N5CCOCC5)cc43)nc2)c1 [Compound No. 27, (1-(5-(2-Fluoro-5-methoxyphenyl)pyrimidin-2-yl)-3-(methylsulfonyl)-1H-indazol-6-yl)(morpholino)methanone] | 85
CS(=O)(=O)c1nn(-c2ncc(-c3cc(C#N)ccc3F)cn2)c2cc(C(=O)N3CCOCC3)ccc12 [Compound No. 28, 4-Fluoro-3-(2-(3-(methylsulfonyl)-6-(morpholine-4-carbonyl)-1H-indazol-1-yl)pyrimidin-5-yl)benzonitrile] | 86
O=C(c1cc2c(cn1)c(C1CC1)nn2-c1ncc(-c2ccccc2F)cn1)N1CCC1 [compound 35, Azetidin-1-yl(3-cyclopropyl-1-(5-(2-fluorophenyl)pyrimidin-2-yl)-1H-pyrazolo[4,3-c]pyridin-6-yl)methanone] | 59
O=C(NC1CC1)c1cc2c(cn1)c(C1CC1)nn2-c1ncc(-c2ccccc2F)cn1 [compound 36, N,3-Dicyclopropyl-1-(5-(2-fluorophenyl)pyrimidin-2-yl)-1H-pyrazolo[4,3-c]pyridine-6-carboxamide] | 81
CCN(C)C(=O)c1cc2c(cn1)c(C1CC1)nn2-c1ncc(-c2ccccc2F)cn1 [compound 37, 3-Cyclopropyl-N-ethyl-1-(5-(2-fluorophenyl)pyrimidin-2-yl)-N-methyl-1H-pyrazolo[4,3-c]pyridine-6-carboxamide] | 73
O=C(c1cc2c(cn1)c(C1CC1)nn2-c1ncc(-c2ccccc2F)cn1)N1CCCC1 [compound 38, (3-Cyclopropyl-1-(5-(2-fluorophenyl)pyrimidin-2-yl)-1H-pyrazolo[4,3-c]pyridin-6-yl)(pyrrolidin-1-yl)methanone] | 85
CCN(CC)C(=O)c1cc2c(cn1)c(C1CC1)nn2-c1ncc(-c2ccccc2F)cn1 [compound 39, 3-Cyclopropyl-N,N-diethyl-1-(5-(2-fluorophenyl)pyrimidin-2-yl)-1H-pyrazolo[4,3-c]pyridine-6-carboxamide] | 67
CN(CCO)C(=O)c1cc2c(cn1)c(C1CC1)nn2-c1ncc(-c2ccccc2F)cn1 [compound 40, 3-Cyclopropyl-1-(5-(2-fluorophenyl)pyrimidin-2-yl)-N-(2-hydroxyethyl)-N-methyl-1H-pyrazolo[4,3-c]pyridine-6-carboxamide] | 40
COCCNC(=O)c1cc2c(cn1)c(C1CC1)nn2-c1ncc(-c2ccccc2F)cn1 [compound 41, 3-Cyclopropyl-1-(5-(2-fluorophenyl)pyrimidin-2-yl)-N-(2-methoxyethyl)-1H-pyrazolo[4,3-c]pyridine-6-carboxamide] | 69
O=C(c1cc2c(cn1)c(C1CC1)nn2-c1ncc(-c2ccccc2F)cn1)N1CCCCC1 [compound 42, (3-Cyclopropyl-1-(5-(2-fluorophenyl)pyrimidin-2-yl)-1H-pyrazolo[4,3-c]pyridin-6-yl)(piperidin-1-yl)methanone] | 39
